Measured values from ChEMBL document CHEMBL3991601, “The target landscape of clinical kinase drugs” (Science, 2017).
Calls of active or inactive are those of the source.

These compounds were tested against cAMP-dependent protein kinase catalytic subunit beta (Homo sapiens, UniProt P22694). Settings: not given.
Further: in the data inactive means no Kd found up to 30 µM.

| SMILES | Kd |
| --- | --- |
| CC[C@@H]1C(=O)N(C)c2cnc(Nc3ccc(C(=O)N[C@H]4CC[C@H](N5CCN(CC6CC6)CC5)CC4)cc3OC)nc2N1C(C)C [VOLASERTIB] | > 30 µM (inactive) |
| CCn1c(=O)c(-c2cc[nH]n2)cc2c(C)nc(N)nc21 [VOXTALISIB] | > 30 µM (inactive) |
| O=C(Nc1ccc(-c2ccnc(Nc3ccc(N4CCOCC4)cc3)n2)cc1)C1CCCN1 (stereo not drawn) [XL-019] | > 30 µM (inactive) |

The compounds below were run against Serine/threonine-protein kinase MRCK beta (Homo sapiens, UniProt Q9Y5S2). Settings: not given.
Serine/threonine-protein kinase MRCK beta, sequence (Q9Y5S2 whole entry): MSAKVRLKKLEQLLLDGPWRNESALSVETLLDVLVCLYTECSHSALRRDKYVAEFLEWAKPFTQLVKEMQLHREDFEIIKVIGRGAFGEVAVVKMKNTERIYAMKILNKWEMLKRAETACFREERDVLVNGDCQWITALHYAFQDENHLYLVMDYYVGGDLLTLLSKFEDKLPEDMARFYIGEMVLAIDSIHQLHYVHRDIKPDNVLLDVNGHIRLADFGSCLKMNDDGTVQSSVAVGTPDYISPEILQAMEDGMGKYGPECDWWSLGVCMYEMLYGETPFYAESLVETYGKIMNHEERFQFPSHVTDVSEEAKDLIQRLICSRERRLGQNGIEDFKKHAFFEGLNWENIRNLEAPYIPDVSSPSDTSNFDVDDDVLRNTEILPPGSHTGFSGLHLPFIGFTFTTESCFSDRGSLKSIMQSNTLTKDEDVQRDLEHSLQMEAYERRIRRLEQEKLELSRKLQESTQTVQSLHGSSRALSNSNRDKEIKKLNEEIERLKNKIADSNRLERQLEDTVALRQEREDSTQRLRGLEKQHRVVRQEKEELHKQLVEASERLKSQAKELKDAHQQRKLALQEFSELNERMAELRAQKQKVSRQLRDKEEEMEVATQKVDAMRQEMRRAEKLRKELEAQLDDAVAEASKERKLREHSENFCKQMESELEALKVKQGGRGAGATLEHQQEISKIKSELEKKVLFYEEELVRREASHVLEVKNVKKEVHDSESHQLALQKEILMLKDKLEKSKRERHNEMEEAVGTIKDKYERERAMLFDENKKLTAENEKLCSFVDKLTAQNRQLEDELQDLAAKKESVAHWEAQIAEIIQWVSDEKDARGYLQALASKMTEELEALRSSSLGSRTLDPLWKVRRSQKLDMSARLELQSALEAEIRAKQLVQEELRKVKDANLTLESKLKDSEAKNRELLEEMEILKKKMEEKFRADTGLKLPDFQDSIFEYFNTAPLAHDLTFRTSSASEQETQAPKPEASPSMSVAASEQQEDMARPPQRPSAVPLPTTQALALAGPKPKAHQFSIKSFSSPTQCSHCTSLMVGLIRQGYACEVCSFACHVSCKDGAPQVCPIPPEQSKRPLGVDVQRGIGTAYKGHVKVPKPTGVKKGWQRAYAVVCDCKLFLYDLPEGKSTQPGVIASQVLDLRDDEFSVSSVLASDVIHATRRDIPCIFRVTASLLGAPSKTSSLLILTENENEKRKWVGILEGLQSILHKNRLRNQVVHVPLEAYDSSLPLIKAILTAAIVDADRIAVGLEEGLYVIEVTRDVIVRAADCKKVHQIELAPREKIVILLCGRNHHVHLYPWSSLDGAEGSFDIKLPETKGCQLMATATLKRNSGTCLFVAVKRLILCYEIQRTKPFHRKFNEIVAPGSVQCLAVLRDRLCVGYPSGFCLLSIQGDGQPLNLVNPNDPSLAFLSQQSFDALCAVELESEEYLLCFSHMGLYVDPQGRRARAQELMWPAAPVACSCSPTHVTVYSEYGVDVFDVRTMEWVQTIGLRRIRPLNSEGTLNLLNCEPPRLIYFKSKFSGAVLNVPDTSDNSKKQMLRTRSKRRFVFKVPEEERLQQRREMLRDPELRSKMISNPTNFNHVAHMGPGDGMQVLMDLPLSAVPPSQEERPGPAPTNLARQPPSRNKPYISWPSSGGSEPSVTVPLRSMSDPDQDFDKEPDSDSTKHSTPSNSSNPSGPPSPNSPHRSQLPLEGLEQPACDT

| SMILES | Kd |
| --- | --- |
| CC[C@@H]1C(=O)N(C)c2cnc(Nc3ccc(C(=O)N[C@H]4CC[C@H](N5CCN(CC6CC6)CC5)CC4)cc3OC)nc2N1C(C)C [VOLASERTIB] | > 30 µM (inactive) |
| CCn1c(=O)c(-c2cc[nH]n2)cc2c(C)nc(N)nc21 [VOXTALISIB] | > 30 µM (inactive) |
| O=C(Nc1ccc(-c2ccnc(Nc3ccc(N4CCOCC4)cc3)n2)cc1)C1CCCN1 (stereo not drawn) [XL-019] | > 30 µM (inactive) |

What follows are compounds tested against T1, Succinate--CoA ligase [ADP-forming] subunit beta, mitochondrial (Homo sapiens, UniProt Q9P2R7). Settings: not given.
T1 sequence (Q9P2R7 whole entry): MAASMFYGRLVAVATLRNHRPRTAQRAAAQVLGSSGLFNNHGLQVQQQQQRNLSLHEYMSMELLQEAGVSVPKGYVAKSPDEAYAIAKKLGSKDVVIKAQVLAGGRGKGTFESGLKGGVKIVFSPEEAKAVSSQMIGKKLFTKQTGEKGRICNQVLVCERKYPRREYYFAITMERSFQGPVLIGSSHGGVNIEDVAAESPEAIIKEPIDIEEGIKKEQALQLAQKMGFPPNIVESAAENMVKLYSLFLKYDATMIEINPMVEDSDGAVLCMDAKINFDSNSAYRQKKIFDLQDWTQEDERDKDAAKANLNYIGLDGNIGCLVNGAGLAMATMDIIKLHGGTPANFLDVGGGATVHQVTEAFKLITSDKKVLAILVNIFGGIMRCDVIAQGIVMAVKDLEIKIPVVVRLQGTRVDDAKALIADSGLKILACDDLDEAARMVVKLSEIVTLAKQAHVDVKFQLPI

| SMILES | Kd |
| --- | --- |
| CC[C@@H]1C(=O)N(C)c2cnc(Nc3ccc(C(=O)N[C@H]4CC[C@H](N5CCN(CC6CC6)CC5)CC4)cc3OC)nc2N1C(C)C [VOLASERTIB] | > 30 µM (inactive) |
| CCn1c(=O)c(-c2cc[nH]n2)cc2c(C)nc(N)nc21 [VOXTALISIB] | > 30 µM (inactive) |
| O=C(Nc1ccc(-c2ccnc(Nc3ccc(N4CCOCC4)cc3)n2)cc1)C1CCCN1 (stereo not drawn) [XL-019] | > 30 µM (inactive) |

The compounds below were run against Tyrosine-protein kinase SYK (Homo sapiens, UniProt P43405). Settings: not given.

| SMILES | Kd |
| --- | --- |
| CC[C@@H]1C(=O)N(C)c2cnc(Nc3ccc(C(=O)N[C@H]4CC[C@H](N5CCN(CC6CC6)CC5)CC4)cc3OC)nc2N1C(C)C [VOLASERTIB] | > 30 µM (inactive) |
| CCn1c(=O)c(-c2cc[nH]n2)cc2c(C)nc(N)nc21 [VOXTALISIB] | > 30 µM (inactive) |
| O=C(Nc1ccc(-c2ccnc(Nc3ccc(N4CCOCC4)cc3)n2)cc1)C1CCCN1 (stereo not drawn) [XL-019] | > 30 µM (inactive) |

The compounds below were run against Cyclin-dependent kinase 4 (Homo sapiens, UniProt P11802). Settings: not given.
Cyclin-dependent kinase 4, sequence (P11802 whole entry): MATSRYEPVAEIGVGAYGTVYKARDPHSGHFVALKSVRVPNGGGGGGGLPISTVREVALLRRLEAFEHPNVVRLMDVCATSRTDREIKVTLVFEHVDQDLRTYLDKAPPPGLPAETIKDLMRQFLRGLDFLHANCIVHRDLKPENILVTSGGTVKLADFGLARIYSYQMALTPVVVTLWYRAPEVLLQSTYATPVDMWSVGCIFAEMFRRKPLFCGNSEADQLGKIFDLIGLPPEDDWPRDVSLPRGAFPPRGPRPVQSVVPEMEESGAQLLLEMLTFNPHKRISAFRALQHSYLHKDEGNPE

| SMILES | Kd |
| --- | --- |
| CC[C@@H]1C(=O)N(C)c2cnc(Nc3ccc(C(=O)N[C@H]4CC[C@H](N5CCN(CC6CC6)CC5)CC4)cc3OC)nc2N1C(C)C [VOLASERTIB] | > 30 µM (inactive) |
| CCn1c(=O)c(-c2cc[nH]n2)cc2c(C)nc(N)nc21 [VOXTALISIB] | > 30 µM (inactive) |
| O=C(Nc1ccc(-c2ccnc(Nc3ccc(N4CCOCC4)cc3)n2)cc1)C1CCCN1 (stereo not drawn) [XL-019] | > 30 µM (inactive) |

Each compound was assayed against T2, Peroxisomal acyl-coenzyme A oxidase 3 (Homo sapiens, UniProt O15254). Settings: not given.
T2 sequence (O15254 whole entry): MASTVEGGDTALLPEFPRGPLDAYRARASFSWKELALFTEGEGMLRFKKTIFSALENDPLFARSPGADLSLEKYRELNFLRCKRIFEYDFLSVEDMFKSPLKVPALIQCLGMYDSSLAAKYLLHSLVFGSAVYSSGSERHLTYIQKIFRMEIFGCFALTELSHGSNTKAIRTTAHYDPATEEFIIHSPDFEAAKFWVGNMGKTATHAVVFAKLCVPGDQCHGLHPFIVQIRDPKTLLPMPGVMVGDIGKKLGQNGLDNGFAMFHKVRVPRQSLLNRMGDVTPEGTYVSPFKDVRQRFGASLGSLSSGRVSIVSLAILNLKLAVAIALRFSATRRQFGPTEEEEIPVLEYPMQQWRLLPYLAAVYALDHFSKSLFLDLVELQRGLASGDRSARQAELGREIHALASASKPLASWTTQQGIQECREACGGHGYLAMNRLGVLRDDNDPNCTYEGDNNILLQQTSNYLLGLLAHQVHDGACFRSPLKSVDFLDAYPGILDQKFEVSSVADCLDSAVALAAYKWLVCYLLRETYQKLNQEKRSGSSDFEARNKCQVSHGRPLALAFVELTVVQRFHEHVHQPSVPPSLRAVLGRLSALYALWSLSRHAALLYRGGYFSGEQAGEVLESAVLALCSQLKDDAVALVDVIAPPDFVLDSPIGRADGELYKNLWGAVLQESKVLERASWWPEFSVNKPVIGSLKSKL

| SMILES | Kd |
| --- | --- |
| CC[C@@H]1C(=O)N(C)c2cnc(Nc3ccc(C(=O)N[C@H]4CC[C@H](N5CCN(CC6CC6)CC5)CC4)cc3OC)nc2N1C(C)C [VOLASERTIB] | > 30 µM (inactive) |
| CCn1c(=O)c(-c2cc[nH]n2)cc2c(C)nc(N)nc21 [VOXTALISIB] | > 30 µM (inactive) |
| O=C(Nc1ccc(-c2ccnc(Nc3ccc(N4CCOCC4)cc3)n2)cc1)C1CCCN1 (stereo not drawn) [XL-019] | > 30 µM (inactive) |

The compounds below were run against Activin receptor type-2B (Homo sapiens, UniProt Q13705). Settings: not given.
Activin receptor type-2B, sequence (Q13705 whole entry): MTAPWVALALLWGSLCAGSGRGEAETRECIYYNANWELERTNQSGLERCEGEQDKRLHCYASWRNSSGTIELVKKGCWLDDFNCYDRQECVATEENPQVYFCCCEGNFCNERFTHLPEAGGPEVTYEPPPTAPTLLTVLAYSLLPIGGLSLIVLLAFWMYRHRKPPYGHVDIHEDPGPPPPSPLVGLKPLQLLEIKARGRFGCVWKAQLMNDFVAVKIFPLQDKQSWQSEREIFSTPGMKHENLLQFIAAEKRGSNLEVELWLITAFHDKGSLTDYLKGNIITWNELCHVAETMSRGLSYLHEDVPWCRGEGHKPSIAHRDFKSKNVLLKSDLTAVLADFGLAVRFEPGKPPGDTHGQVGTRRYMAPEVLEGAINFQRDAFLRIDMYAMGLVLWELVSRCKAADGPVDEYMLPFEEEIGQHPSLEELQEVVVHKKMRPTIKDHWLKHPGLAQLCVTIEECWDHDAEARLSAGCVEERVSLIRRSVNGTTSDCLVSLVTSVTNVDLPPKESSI

| SMILES | Kd |
| --- | --- |
| CC[C@@H]1C(=O)N(C)c2cnc(Nc3ccc(C(=O)N[C@H]4CC[C@H](N5CCN(CC6CC6)CC5)CC4)cc3OC)nc2N1C(C)C [VOLASERTIB] | > 30 µM (inactive) |
| CCn1c(=O)c(-c2cc[nH]n2)cc2c(C)nc(N)nc21 [VOXTALISIB] | > 30 µM (inactive) |
| O=C(Nc1ccc(-c2ccnc(Nc3ccc(N4CCOCC4)cc3)n2)cc1)C1CCCN1 (stereo not drawn) [XL-019] | > 30 µM (inactive) |

What follows are compounds tested against T3, Delta(24)-sterol reductase (Homo sapiens, UniProt Q15392). Settings: not given.
T3 sequence (Q15392 whole entry): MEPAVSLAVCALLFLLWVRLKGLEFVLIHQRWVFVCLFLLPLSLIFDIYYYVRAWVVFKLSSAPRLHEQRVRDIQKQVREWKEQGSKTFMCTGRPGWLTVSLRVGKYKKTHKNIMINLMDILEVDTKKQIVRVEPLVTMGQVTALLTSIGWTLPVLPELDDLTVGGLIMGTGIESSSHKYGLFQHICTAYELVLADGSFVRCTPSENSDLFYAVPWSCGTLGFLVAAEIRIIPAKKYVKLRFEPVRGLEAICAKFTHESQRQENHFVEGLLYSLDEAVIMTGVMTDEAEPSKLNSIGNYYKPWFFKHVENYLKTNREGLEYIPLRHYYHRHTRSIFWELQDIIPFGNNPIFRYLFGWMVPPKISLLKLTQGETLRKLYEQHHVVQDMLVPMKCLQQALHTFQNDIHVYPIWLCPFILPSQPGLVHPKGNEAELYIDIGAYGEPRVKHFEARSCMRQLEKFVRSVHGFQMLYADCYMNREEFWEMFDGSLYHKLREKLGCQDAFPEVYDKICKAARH

| SMILES | Kd |
| --- | --- |
| CC[C@@H]1C(=O)N(C)c2cnc(Nc3ccc(C(=O)N[C@H]4CC[C@H](N5CCN(CC6CC6)CC5)CC4)cc3OC)nc2N1C(C)C [VOLASERTIB] | > 30 µM (inactive) |
| CCn1c(=O)c(-c2cc[nH]n2)cc2c(C)nc(N)nc21 [VOXTALISIB] | > 30 µM (inactive) |
| O=C(Nc1ccc(-c2ccnc(Nc3ccc(N4CCOCC4)cc3)n2)cc1)C1CCCN1 (stereo not drawn) [XL-019] | > 30 µM (inactive) |

Each compound was assayed against Mitogen-activated protein kinase 8 (Homo sapiens, UniProt P45983). Settings: not given.
Mitogen-activated protein kinase 8, sequence (P45983 whole entry): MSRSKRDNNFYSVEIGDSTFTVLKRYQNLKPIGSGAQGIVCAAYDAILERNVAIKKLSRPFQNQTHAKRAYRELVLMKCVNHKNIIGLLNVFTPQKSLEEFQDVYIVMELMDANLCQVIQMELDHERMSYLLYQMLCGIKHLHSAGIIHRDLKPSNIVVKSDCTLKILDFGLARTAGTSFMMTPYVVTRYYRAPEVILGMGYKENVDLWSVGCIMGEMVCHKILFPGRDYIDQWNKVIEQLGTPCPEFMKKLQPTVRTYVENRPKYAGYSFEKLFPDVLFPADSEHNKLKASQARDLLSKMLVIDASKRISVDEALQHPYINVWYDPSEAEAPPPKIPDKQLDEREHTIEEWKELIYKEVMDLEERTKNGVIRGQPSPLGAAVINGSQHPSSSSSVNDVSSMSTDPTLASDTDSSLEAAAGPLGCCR

| SMILES | Kd |
| --- | --- |
| CC[C@@H]1C(=O)N(C)c2cnc(Nc3ccc(C(=O)N[C@H]4CC[C@H](N5CCN(CC6CC6)CC5)CC4)cc3OC)nc2N1C(C)C [VOLASERTIB] | > 30 µM (inactive) |
| CCn1c(=O)c(-c2cc[nH]n2)cc2c(C)nc(N)nc21 [VOXTALISIB] | > 30 µM (inactive) |
| O=C(Nc1ccc(-c2ccnc(Nc3ccc(N4CCOCC4)cc3)n2)cc1)C1CCCN1 (stereo not drawn) [XL-019] | 0.844 µM (active) |

These compounds were tested against T4, Glycogen phosphorylase, liver form (Homo sapiens, UniProt P06737). Settings: read-out: Kd apparent.
T4 sequence (P06737 whole entry): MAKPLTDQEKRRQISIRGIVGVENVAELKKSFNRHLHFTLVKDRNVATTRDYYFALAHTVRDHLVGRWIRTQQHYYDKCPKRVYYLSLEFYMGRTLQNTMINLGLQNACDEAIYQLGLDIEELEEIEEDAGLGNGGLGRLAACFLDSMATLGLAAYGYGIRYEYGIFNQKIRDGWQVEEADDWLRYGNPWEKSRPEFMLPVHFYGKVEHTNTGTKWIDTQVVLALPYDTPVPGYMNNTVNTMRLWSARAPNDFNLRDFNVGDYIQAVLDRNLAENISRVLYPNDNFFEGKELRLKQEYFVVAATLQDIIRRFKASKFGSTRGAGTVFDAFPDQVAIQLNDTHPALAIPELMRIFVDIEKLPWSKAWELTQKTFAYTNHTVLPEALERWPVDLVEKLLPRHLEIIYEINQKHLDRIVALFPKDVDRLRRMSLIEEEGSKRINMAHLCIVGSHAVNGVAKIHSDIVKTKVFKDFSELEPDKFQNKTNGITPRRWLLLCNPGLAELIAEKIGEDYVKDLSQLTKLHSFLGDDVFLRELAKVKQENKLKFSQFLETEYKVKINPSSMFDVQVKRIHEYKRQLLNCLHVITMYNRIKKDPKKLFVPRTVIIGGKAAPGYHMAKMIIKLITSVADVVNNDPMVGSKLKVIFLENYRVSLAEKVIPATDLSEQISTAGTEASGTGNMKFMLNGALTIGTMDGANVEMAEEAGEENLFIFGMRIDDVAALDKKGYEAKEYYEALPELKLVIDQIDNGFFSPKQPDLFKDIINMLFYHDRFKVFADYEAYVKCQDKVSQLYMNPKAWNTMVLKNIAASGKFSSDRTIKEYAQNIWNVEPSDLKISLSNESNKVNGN
Assay type: subcellular, K-562, COLO 205, SK-N-BE(2) and MV-4-11, Cell lysate

| SMILES | Kd |
| --- | --- |
| CC[C@@H]1C(=O)N(C)c2cnc(Nc3ccc(C(=O)N[C@H]4CC[C@H](N5CCN(CC6CC6)CC5)CC4)cc3OC)nc2N1C(C)C [VOLASERTIB] | > 30 µM (inactive) |
| CCn1c(=O)c(-c2cc[nH]n2)cc2c(C)nc(N)nc21 [VOXTALISIB] | > 30 µM (inactive) |
| O=C(Nc1ccc(-c2ccnc(Nc3ccc(N4CCOCC4)cc3)n2)cc1)C1CCCN1 (stereo not drawn) [XL-019] | > 30 µM (inactive) |

These compounds were tested against Tyrosine-protein kinase Fyn (Homo sapiens, UniProt P06241). Settings: not given.
Tyrosine-protein kinase Fyn, sequence (P06241 whole entry): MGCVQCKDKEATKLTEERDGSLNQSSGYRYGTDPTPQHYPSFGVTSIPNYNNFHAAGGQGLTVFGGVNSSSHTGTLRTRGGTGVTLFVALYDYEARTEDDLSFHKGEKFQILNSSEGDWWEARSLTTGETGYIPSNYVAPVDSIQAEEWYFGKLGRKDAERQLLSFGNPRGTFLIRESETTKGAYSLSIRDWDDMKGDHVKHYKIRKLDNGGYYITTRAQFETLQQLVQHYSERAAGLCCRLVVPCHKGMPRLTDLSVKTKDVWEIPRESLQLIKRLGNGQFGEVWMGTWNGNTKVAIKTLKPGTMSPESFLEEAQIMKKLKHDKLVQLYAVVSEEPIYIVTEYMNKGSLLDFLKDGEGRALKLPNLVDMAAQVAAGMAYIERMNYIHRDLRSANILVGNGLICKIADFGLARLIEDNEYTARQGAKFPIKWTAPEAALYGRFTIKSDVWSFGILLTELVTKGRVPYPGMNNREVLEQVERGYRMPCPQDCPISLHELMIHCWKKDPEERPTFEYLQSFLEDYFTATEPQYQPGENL

| SMILES | Kd |
| --- | --- |
| CC[C@@H]1C(=O)N(C)c2cnc(Nc3ccc(C(=O)N[C@H]4CC[C@H](N5CCN(CC6CC6)CC5)CC4)cc3OC)nc2N1C(C)C [VOLASERTIB] | > 30 µM (inactive) |
| CCn1c(=O)c(-c2cc[nH]n2)cc2c(C)nc(N)nc21 [VOXTALISIB] | > 30 µM (inactive) |
| O=C(Nc1ccc(-c2ccnc(Nc3ccc(N4CCOCC4)cc3)n2)cc1)C1CCCN1 (stereo not drawn) [XL-019] | > 30 µM (inactive) |
